Test results taken from patent US9896418B2, “Aryl ethers and uses thereof” (Peloton Therapeutics, Inc., priority 2013, dated 2018).

Key:
786-O-Hif-Luc cells = assay: Luciferase Assay; type: cell-based; settings: about 24 hours, read-out: Mean Luciferease EC50
Description: A pool of infected cells were then selected against 2 μg/mL of puromycin (P8833, Sigma) for 10 days followed by limited dilution to select single clones.
Each concentration was tested in triplicate. After about 24 hours, luciferase activity was determined using ONE-Glo Luciferase Assay Reagent (E6110, Promega) following the manufacturer's recommended procedure. EC50 were calculated by using Dotmatics software.

[1] = tested on: HIF-2α HIS TAG-PASB Domain; assay: HIF-2α Scintillation Proximity Assay (SPA); type: binding
Description: The percent inhibition was determined and IC50 values were calculated using the Dotmatics system based on the following equation: % inhibition=[(high control−sample)/(high control−low control)]×100.

Molecule	EC50 (786-O-Hif-Luc cells) [nM]	IC50 [1] [nM]
C[C@H]1C[C@@H](O)c2c(S(=O)(=O)C(F)F)ccc(Oc3cc(F)cc(Cl)c3)c21 (racemic) [Compound 7a]	1000	
C=CCN=S(=O)(c1ccc(Oc2cc(F)cc(C#N)c2)c2c1[C@H](O)C(F)(F)C2)C(F)(F)F (single isomer, unassigned) [Compound 307]	1700	370
C=CCN=S(=O)(c1ccc(Oc2cc(F)cc(C#N)c2)c2c1[C@H](O)C(F)(F)C2)C(F)(F)F (single isomer, unassigned) [Compound 308]	690	68
N#Cc1cc(F)cc(Oc2ccc(S(=N)(=O)CF)c3c2CC(F)(F)[C@H]3O)c1 (single isomer, unassigned) [Example 275]	260	76
N#CN=S(=O)(CF)c1ccc(Oc2cc(F)cc(C#N)c2)c2c1[C@H](O)[C@H](F)C2 (single isomer, unassigned) [Example 276]	150	58
N#CN=S(=O)(CF)c1ccc(Oc2cc(F)cc(C#N)c2)c2c1[C@H](O)[C@H](F)C2 (single isomer, unassigned) [Example 277]	74	135
N#CN=S(=O)(CF)c1ccc(Oc2cc(F)cc(C#N)c2)c2c1[C@H](O)C(F)(F)C2 (single isomer, unassigned) [Example 286]	140	24
O=S(=O)(c1ccc(Oc2cc(F)cc(Cl)c2)c(Br)c1CO)C(F)F [Compound 74, (2-bromo-3-(3-chloro-5-fluorophenoxy)-6-((difluoromethyl)sulfonyl)phenyl)methanol]	490	
O=S(=O)(c1ccc(Oc2cc(F)cc(Cl)c2)c(Br)c1)C(F)(F)F [Compound 116, 2-Bromo-1-(3-chloro-5-fluorophenoxy)-4-((trifluoromethyl)sulfonyl)benzene]	3500	150
O=S(=O)(c1ccc(Oc2cc(F)cc(Cl)c2)c(Cl)c1)C(F)(F)F [Compound 128, 2-Chloro-1-(3-chloro-5-fluorophenoxy)-4-((trifluoromethyl)sulfonyl)benzene]	3000	150
N#Cc1cc(F)cc(Oc2ccc(S(=N)(=O)C(F)(F)F)c3c2CCC3O)c1 (stereo not drawn) [Compound 259, 3-Fluoro-5-((1-hydroxy-7-(S-(trifluoromethyl)sulfonimidoyl)-2,3-dihydro-1H-inden-4-yl)oxy)benzonitrile]	2000	1200
N#Cc1cc(F)cc(Oc2ccc(S(=O)(=O)C(F)(F)F)c3c2CC(F)C3N)c1 (centres unmarked) [Compound 265, 3-((1-amino-2-fluoro-7-((trifluoromethyl)sulfonyl)-2,3-dihydro-1H-inden-4-yl)oxy)-5-fluorobenzonitrile]	900	90
O=S(=O)(CF)c1ccc(Oc2cncc(Cl)c2)c2c1[C@H](O)C(F)(F)C2 [Example 187, (S)-4-((5-Chloropyridin-3-yl)oxy)-2,2-difluoro-7-((fluoromethyl)sulfonyl)-2,3-dihydro-1H-inden-1-ol]		79
CS(=O)(=NC#N)c1ccc(Oc2cc(F)cc(F)c2)c2c1C(O)C(F)(F)C2 (centres unmarked) [Example 191, N-((7-(3,5-difluorophenoxy)-2,2-difluoro-3-hydroxy-2,3-dihydro-1H-inden-4-yl)(methyl)(oxo)-λ^6-sulfanylidene)cyanamide]		< 5
CS(=N)(=O)c1ccc(Oc2cc(F)cc(F)c2)c2c1[C@H](O)C(F)(F)C2 (stereo partly drawn) [Example 192, ((S)-7-(3,5-Difluorophenoxy)-2,2-difluoro-3-hydroxy-2,3-dihydro-1H-inden-4-yl)(imino)(methyl)-λ^6-sulfanone]		180
O=S(=O)(c1ccc(Oc2ccc(F)c(Cl)c2)c2c1[C@H](O)C(F)(F)C2)C(F)(F)F [Example 221, (S)-4-(3-Chloro-4-fluorophenoxy)-2,2-difluoro-7-((trifluoromethyl)sulfonyl)-2,3-dihydro-1H-inden-1-ol]		29
N#Cc1cncc(Oc2ccc(S(=O)(=O)C(F)(F)F)c3c2C[C@@H](F)[C@H]3O)c1 [Example 225, 5-(((1S,2R)-2-Fluoro-1-hydroxy-7-((trifluoromethyl)sulfonyl)-2,3-dihydro-1H-inden-4-yl)oxy)nicotinonitrile]		< 5
N#Cc1cc(Oc2ccc(S(=O)(=O)C(F)(F)F)c3c2CC(F)(F)[C@H]3O)ccc1F [Example 228, (S)-5-((2,2-Difluoro-1-hydroxy-7-((trifluoromethyl)sulfonyl)-2,3-dihydro-1H-inden-4-yl)oxy)-2-fluorobenzonitrile]		40

Molecule	EC50 (786-O-Hif-Luc cells) [nM]	IC50 [1] [nM]
O=S(=O)(c1ccc(Oc2ccc(F)cc2)c2c1[C@H](O)C(F)(F)C2)C(F)(F)F [Example 230, (S)-2,2-Difluoro-4-(4-fluorophenoxy)-7-((trifluoromethyl)sulfonyl)-2,3-dihydro-1H-inden-1-ol]		28
O=S(=O)(c1ccc(Oc2ccc(F)c(F)c2)c2c1[C@H](O)C(F)(F)C2)C(F)(F)F [Example 233, (S)-4-(3,4-Difluorophenoxy)-2,2-difluoro-7-((trifluoromethyl)sulfonyl)-2,3-dihydro-1H-inden-1-ol]		< 5
N#Cc1cccc(Oc2ccc(S(=O)(=O)C(F)F)c3c2CC(F)(F)[C@H]3O)c1 [Example 236, (S)-3-((7-((difluoromethyl)sulfonyl)-2,2-difluoro-1-hydroxy-2,3-dihydro-1H-inden-4-yl)oxy)benzonitrile]		< 5
CS(=O)(=NC#N)c1ccc(Oc2cc(F)cc(C#N)c2)c2c1[C@H](O)C(F)(F)C2 (some centres unmarked) [Example 240]		26
O=S(=O)(c1ccc(Oc2cc(Cl)c[n+]([O-])c2)c2c1[C@H](O)C(F)(F)C2)C(F)(F)F [Example 260, (S)-3-Chloro-5-((2,2-difluoro-1-hydroxy-7-((trifluoromethyl)sulfonyl)-2,3-dihydro-1H-inden-4-yl)oxy)pyridine 1-oxide]		66
N#Cc1cc(Oc2ccc(S(=O)(=O)C(F)(F)F)c3c2CC(F)(F)[C@H]3O)c[n+]([O-])c1 [Example 267, (S)-3-cyano-5-((2,2-difluoro-1-hydroxy-7-((trifluoromethyl)sulfonyl)-2,3-dihydro-1H-inden-4-yl)oxy)pyridine 1-oxide]		92
CS(=O)(=O)c1ccc(Oc2cc(F)cc(C#N)c2)c2c1[C@H](O)C(F)(Cl)C2 (stereo partly drawn) [Example 270, 3-(((1S)-2-chloro-2-fluoro-1-hydroxy-7-(methylsulfonyl)-2,3-dihydro-1H-inden-4-yl)oxy)-5-fluorobenzonitrile]		97
CS(=O)(=O)c1ccc(Oc2cc(F)cc(C#N)c2)c2c1[C@H](O)C(F)(F)[C@@H]2F [Example 292, 3-fluoro-5-[(1S,3R)-2,2,3-trifluoro-1-hydroxy-7-methylsulfonyl-indan-4-yl]oxy-benzonitrile]		< 5
CS(=O)(=NC#N)c1ccc(Oc2cc(F)cc(C#N)c2)c2c1[C@H](O)[C@H](F)C2 (stereo partly drawn) [Example 302, N-(((2R,3S)-7-(3-cyano-5-fluorophenoxy)-2-fluoro-3-hydroxy-2,3-dihydro-1H-inden-4-yl)(methyl)(oxo)-λ^6-sulfanylidene)cyanamide]		63
N#Cc1cncc(Oc2ccc(C(F)(F)F)c3c2CC(F)(F)[C@H]3O)c1 [Example 303, 5-[(1S)-2,2-difluoro-1-hydroxy-7-(trifluoromethyl)indan-4-yl]oxypyridine-3-carbonitrile]		37
CS(=O)(=O)c1ccc(Oc2cc(F)cc(Br)c2)c2c1[C@H](O)C(F)(F)C2 [Example 304, (S)-4-(3-bromo-5-fluorophenoxy)-2,2-difluoro-7-(methylsulfonyl)-2,3-dihydro-1H-inden-1-ol]		< 5
O=S(=O)(c1ccc(Oc2cncc(F)c2)c2c1[C@H](O)C(F)(F)C2)C(F)(F)F [Example 309, (S)-2,2-difluoro-4-((5-fluoropyridin-3-yl)oxy)-7-((trifluoromethyl)sulfonyl)-2,3-dihydro-1H-inden-1-ol]		< 5
O=S(=O)(c1ccc(Oc2cc(F)c[n+]([O-])c2)c2c1[C@H](O)C(F)(F)C2)C(F)(F)F [Example 310, (S)-3-((2,2-difluoro-1-hydroxy-7-((trifluoromethyl)sulfonyl)-2,3-dihydro-1H-inden-4-yl)oxonio)-5-fluoropyridine 1-oxide]		16
N#Cc1cncc(Oc2ccc(S(=N)(=O)C(F)(F)F)c3c2CC(F)(F)[C@H]3O)c1 (stereo partly drawn) [Example 314, 5-(((1S)-2,2-difluoro-1-hydroxy-7-(S-(trifluoromethyl)sulfonimidoyl)-2,3-dihydro-1H-inden-4-yl)oxy)nicotinonitrile]		25
N#Cc1cncc(Oc2ccc(S(=N)(=O)C(F)(F)F)c3c2CC(F)(F)[C@H]3O)c1 (stereo partly drawn) [Example 315, 5-(((1S)-2,2-difluoro-1-hydroxy-7-(S-(trifluoromethyl)sulfonimidoyl)-2,3-dihydro-1H-inden-4-yl)oxy)nicotinonitrile]	110	23.2
(1R,3S)-4-(3-chloro-5-fluorophenoxy)-3-(hydroxymethyl)-7-((trifluoromethyl)sulfonyl)-2,3-dihydro-1H-inden-1-ol [Compound 281]		730
[[(1R,3R)-7-(3-cyano-5-fluoro-phenoxy)-1,2,2-trifluoro-3-hydroxy-indan-4-yl]-methyl-oxo-λ^6-sulfanylidene]cyanamide [Compound 320]		1570
[[(1R,3R)-7-(3-cyano-5-fluoro-phenoxy)-1,2,2-trifluoro-3-hydroxy-indan-4-yl]-methyl-oxo-λ^6-sulfanylidene]cyanamide [Compound 322]		9800
